Data as given in ChEMBL document CHEMBL1151521, “Balanced AT1 and AT2 angiotensin II antagonists. III. potent and orally active 5--ketosulfoxide imidazolyl biphenyl sulfonylureas” (Bioorg Med Chem Lett, 1995).

System: Rattus norvegicus
Test: Compound was evaluated in vivo, after peroral administration for the inhibition of the pressor response induced by A II (0.75 ug/kg) in normotensive pithed rats
Type: functional
Conditions: not given

SMILES	ID50 [mg/kg]
CCCc1nc(SC)c(C(=O)C[S+]([O-])c2ccc(C)cc2)n1Cc1ccc(-c2ccccc2S(=O)(=O)NC(=O)NCc2ccccc2)cc1 (single isomer, unassigned; 7h)	1.5

Same assay, conditions: Rattus norvegicus, po; read-out: ID50 (the source's name)

SMILES	ED50 [mg/kg]
CCCc1nc(SC)c(C(=O)C[S+]([O-])c2ccccc2)n1Cc1ccc(-c2ccccc2S(=O)(=O)NC(=O)NCC2CCCCC2)cc1 (configuration not stated)	3.1
CCCc1nc(SC)c(C(=O)C[S+]([O-])c2ccccc2)n1Cc1ccc(-c2ccccc2S(=O)(=O)NC(=O)NCc2ccccc2)cc1 (configuration not stated)	0.8
CCCc1nc(SC)c(C(=O)C[S+]([O-])c2ccccc2)n1Cc1ccc(-c2ccccc2S(=O)(=O)NC(=O)NCC2CCCC2)cc1 (configuration not stated)	> 3
CCCCc1nc(SC)c(C(=O)CS(=O)(=O)c2ccccc2)n1Cc1ccc(-c2ccccc2S(=O)(=O)NC(=O)NCc2ccccc2)cc1	> 3
CCCCc1nc(SC)c(C(=O)CS(C)(=O)=O)n1Cc1ccc(-c2ccccc2S(=O)(=O)NC(=O)NCc2ccccc2)cc1	1.7
CCCc1nc(SC)c(C(=O)CS(=O)(=O)c2ccccc2)n1Cc1ccc(-c2ccccc2S(=O)(=O)NC(=O)NCc2ccccc2)cc1	> 3
CCCc1nc(SC)c(C(=O)CS(=O)(=O)c2ccc(OC)cc2)n1Cc1ccc(-c2ccccc2S(=O)(=O)NC(=O)NCc2ccccc2)cc1	2
CCc1nc(SC)c(C(=O)C[S+]([O-])c2ccccc2)n1Cc1ccc(-c2ccccc2S(=O)(=O)NC(=O)NCc2ccccc2)cc1 (configuration not stated)	2
CCCCc1nc(SC)c(C(=O)CS(=O)(=O)c2ccc(F)cc2)n1Cc1ccc(-c2ccccc2S(=O)(=O)NC(=O)NCc2ccccc2)cc1	> 3
CCCCc1nc(SC)c(C(=O)C[S+]([O-])c2ccccc2)n1Cc1ccc(-c2ccccc2S(=O)(=O)NC(=O)NCc2ccccc2)cc1 (configuration not stated)	1.6
CCCCc1nc(SC)c(C(=O)C[S+](C)[O-])n1Cc1ccc(-c2ccccc2S(=O)(=O)NC(=O)NCc2ccccc2)cc1 (configuration not stated)	0.7
CCCc1nc(SC)c(C(=O)C[S+]([O-])c2ccccc2)n1Cc1ccc(-c2ccccc2S(=O)(=O)NC(=O)NCc2cccs2)cc1 (configuration not stated)	1.4
CCCc1nc(SC)c(C(=O)C[S+]([O-])c2ccc(C)cc2)n1Cc1ccc(-c2ccccc2S(=O)(=O)NC(=O)NCc2ccccc2)cc1 (single isomer, unassigned; 7g)	1.5

System: Rattus norvegicus
Test: Compound was evaluated in vivo, after intravenous administration for the inhibition of the pressor response induced by A II (0.75 ug/kg) in normotensive pithed rats
Type: functional
Conditions: read-out: ID50 (the source's name)

SMILES	ED50 [mg/kg]
CCCc1nc(SC)c(C(=O)C[S+]([O-])c2ccccc2)n1Cc1ccc(-c2ccccc2S(=O)(=O)NC(=O)NCc2ccccc2)cc1 (configuration not stated)	0.04
CCCCc1nc(SC)c(C(=O)CS(=O)(=O)c2ccccc2)n1Cc1ccc(-c2ccccc2S(=O)(=O)NC(=O)NCc2ccccc2)cc1	0.02
CCCCc1nc(SC)c(C(=O)CS(C)(=O)=O)n1Cc1ccc(-c2ccccc2S(=O)(=O)NC(=O)NCc2ccccc2)cc1	0.04
CCCc1nc(SC)c(C(=O)CS(=O)(=O)c2ccccc2)n1Cc1ccc(-c2ccccc2S(=O)(=O)NC(=O)NCc2ccccc2)cc1	0.04
CCCc1nc(SC)c(C(=O)CS(=O)(=O)c2ccc(OC)cc2)n1Cc1ccc(-c2ccccc2S(=O)(=O)NC(=O)NCc2ccccc2)cc1	0.07
CCc1nc(SC)c(C(=O)C[S+]([O-])c2ccccc2)n1Cc1ccc(-c2ccccc2S(=O)(=O)NC(=O)NCc2ccccc2)cc1 (configuration not stated)	0.1
CCCCc1nc(SC)c(C(=O)CS(=O)(=O)c2ccc(F)cc2)n1Cc1ccc(-c2ccccc2S(=O)(=O)NC(=O)NCc2ccccc2)cc1	0.12
CCCCc1nc(SC)c(C(=O)C[S+]([O-])c2ccccc2)n1Cc1ccc(-c2ccccc2S(=O)(=O)NC(=O)NCc2ccccc2)cc1 (configuration not stated)	0.12
CCCCc1nc(SC)c(C(=O)C[S+](C)[O-])n1Cc1ccc(-c2ccccc2S(=O)(=O)NC(=O)NCc2ccccc2)cc1 (configuration not stated)	0.06
CCCc1nc(SC)c(C(=O)C[S+]([O-])c2ccc(C)cc2)n1Cc1ccc(-c2ccccc2S(=O)(=O)NC(=O)NCc2ccccc2)cc1 (single isomer, unassigned; 7g)	0.03

Biological target: not listed separately
Test: Concentration required for 50% inhibition of [125I]- AII binding to rabbit uterus membrane preparation (AT2)
Type: tissue-based, Oryctolagus cuniculus
Conditions: not given

SMILES	IC50 [nM]
CCCc1nc(SC)c(C(=O)C[S+]([O-])c2ccccc2)n1Cc1ccc(-c2ccccc2S(=O)(=O)NC(=O)NCc2ccccc2)cc1 (configuration not stated)	2.8
CCCCc1nc(SC)c(C(=O)CC(=O)OCC)n1Cc1ccc(-c2ccccc2S(=O)(=O)NC(=O)NCc2ccccc2)cc1	1
CCCCc1nc(SC)c(C(=O)CS(=O)(=O)c2ccccc2)n1Cc1ccc(-c2ccccc2S(=O)(=O)NC(=O)NCc2ccccc2)cc1	1.7
CCCCc1nc(SC)c(C(=O)CS(C)(=O)=O)n1Cc1ccc(-c2ccccc2S(=O)(=O)NC(=O)NCc2ccccc2)cc1	5.8
CCCc1nc(SC)c(C(=O)CSc2ccccc2)n1Cc1ccc(-c2ccccc2S(=O)(=O)NC(=O)NCc2ccccc2)cc1	93
CCCc1nc(SC)c(C(=O)CS(=O)(=O)c2ccccc2)n1Cc1ccc(-c2ccccc2S(=O)(=O)NC(=O)NCc2ccccc2)cc1	2.7
CCCc1nc(SC)c(C(=O)CS(=O)(=O)c2ccc(OC)cc2)n1Cc1ccc(-c2ccccc2S(=O)(=O)NC(=O)NCc2ccccc2)cc1	2.1
CCCCc1nc(SC)c(C(=O)C(CCC)S(=O)(=O)c2ccccc2)n1Cc1ccc(-c2ccccc2S(=O)(=O)NC(=O)NCc2ccccc2)cc1 (configuration not stated)	180
CCCCc1nc(SC)c(C(C)(O)C(=O)O)n1Cc1ccc(-c2ccccc2S(=O)(=O)NC(=O)NCCC)cc1 (configuration not stated)	8.2
CCCCc1nc(SC)c(C(=O)C[S+](C)[O-])n1Cc1ccc(-c2ccccc2S(=O)(=O)NC(=O)NCc2ccccc2)cc1 (configuration not stated)	15
CCCc1nc(SC)c(C(=O)C[S+]([O-])c2ccc(C)cc2)n1Cc1ccc(-c2ccccc2S(=O)(=O)NC(=O)NCc2ccccc2)cc1 (single isomer, unassigned; 7h)	4.2
CCCc1nc(SC)c(C(=O)CC#N)n1Cc1ccc(-c2ccccc2S(=O)(=O)NC(=O)NCc2ccccc2)cc1	110
CCCc1nc(SC)c(C(C)=O)n1Cc1ccc(-c2ccccc2S(=O)(=O)NC(=O)NCc2ccccc2)cc1	30

More lines, in order of falling IC50, values ahead:

IC50 [nM]	SMILES
920	CCCCc1nc(SC)c(C(=O)O)n1Cc1ccc(-c2ccccc2S(=O)(=O)NC(=O)NCCC)cc1
114	CCCCc1nc(SC)c(C(=O)CC(=O)c2ccccc2)n1Cc1ccc(-c2ccccc2S(=O)(=O)NC(=O)NCc2ccccc2)cc1
17	CCCCc1nc(SC)c(C(=O)O)n1Cc1ccc(-c2ccccc2S(=O)(=O)NC(=O)NCc2ccccc2)cc1
7	CCCc1nc(SC)c(C(=O)C[S+]([O-])c2ccccc2)n1Cc1ccc(-c2ccccc2S(=O)(=O)NC(=O)NCC2CCCC2)cc1 (configuration not stated)
4	CCCc1nc(SC)c(C(=O)C[S+]([O-])c2ccccc2)n1Cc1ccc(-c2ccccc2S(=O)(=O)NC(=O)NCC2CCCCC2)cc1 (configuration not stated)
3.5	CCCc1nc(SC)c(C(=O)C[S+]([O-])c2ccccc2)n1Cc1ccc(-c2ccccc2S(=O)(=O)NC(=O)NCc2cccs2)cc1 (configuration not stated)
3	CCCCc1nc(SC)c(C(=O)C[S+]([O-])c2ccccc2)n1Cc1ccc(-c2ccccc2S(=O)(=O)NC(=O)NCc2ccccc2)cc1 (configuration not stated)
1.5	CCc1nc(SC)c(C(=O)C[S+]([O-])c2ccccc2)n1Cc1ccc(-c2ccccc2S(=O)(=O)NC(=O)NCc2ccccc2)cc1 (configuration not stated)
1.4	CCCc1nc(SC)c(C(=O)C[S+]([O-])c2ccc(C)cc2)n1Cc1ccc(-c2ccccc2S(=O)(=O)NC(=O)NCc2ccccc2)cc1 (single isomer, unassigned; 7g)
0.8	CCCCc1nc(SC)c(C(=O)CS(=O)(=O)c2ccc(F)cc2)n1Cc1ccc(-c2ccccc2S(=O)(=O)NC(=O)NCc2ccccc2)cc1

Biological target: T1, Angiotensin II receptor (AT-1) type-1 (Rattus norvegicus, UniProt P29089+P25095)
T1 sequence (P29089 whole entry): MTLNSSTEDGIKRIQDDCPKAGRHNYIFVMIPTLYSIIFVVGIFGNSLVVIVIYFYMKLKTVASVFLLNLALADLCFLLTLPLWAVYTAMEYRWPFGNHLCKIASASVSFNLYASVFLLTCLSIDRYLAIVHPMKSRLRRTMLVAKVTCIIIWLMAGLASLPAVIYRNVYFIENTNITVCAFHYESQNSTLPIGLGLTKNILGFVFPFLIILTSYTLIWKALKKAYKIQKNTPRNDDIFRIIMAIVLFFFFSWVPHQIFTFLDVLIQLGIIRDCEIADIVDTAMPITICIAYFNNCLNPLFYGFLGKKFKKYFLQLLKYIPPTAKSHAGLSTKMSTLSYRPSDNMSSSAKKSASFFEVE
T1 sequence (P25095 whole entry): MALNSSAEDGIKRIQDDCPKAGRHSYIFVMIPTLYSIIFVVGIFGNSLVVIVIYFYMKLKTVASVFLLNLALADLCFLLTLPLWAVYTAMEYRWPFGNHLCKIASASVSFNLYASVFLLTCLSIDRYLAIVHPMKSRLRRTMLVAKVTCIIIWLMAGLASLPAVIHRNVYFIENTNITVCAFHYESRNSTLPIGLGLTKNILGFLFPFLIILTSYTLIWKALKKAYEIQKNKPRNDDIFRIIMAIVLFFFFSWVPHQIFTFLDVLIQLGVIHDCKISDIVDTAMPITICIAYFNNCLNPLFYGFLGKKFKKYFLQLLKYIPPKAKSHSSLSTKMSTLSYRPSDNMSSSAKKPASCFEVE
Test: Concentration required for 50% inhibition of [125I]- AII binding to rat liver membrane preparation (AT1)
Conditions: not given

SMILES	IC50 [nM]
CCCc1nc(SC)c(C(=O)C[S+]([O-])c2ccccc2)n1Cc1ccc(-c2ccccc2S(=O)(=O)NC(=O)NCc2ccccc2)cc1 (configuration not stated)	0.08
CCCCc1nc(SC)c(C(=O)CC(=O)OCC)n1Cc1ccc(-c2ccccc2S(=O)(=O)NC(=O)NCc2ccccc2)cc1	0.09
CCCCc1nc(SC)c(C(=O)CS(=O)(=O)c2ccccc2)n1Cc1ccc(-c2ccccc2S(=O)(=O)NC(=O)NCc2ccccc2)cc1	0.04
CCCCc1nc(SC)c(C(=O)CS(C)(=O)=O)n1Cc1ccc(-c2ccccc2S(=O)(=O)NC(=O)NCc2ccccc2)cc1	0.08
CCCc1nc(SC)c(C(=O)CSc2ccccc2)n1Cc1ccc(-c2ccccc2S(=O)(=O)NC(=O)NCc2ccccc2)cc1	0.2
CCCc1nc(SC)c(C(=O)CS(=O)(=O)c2ccccc2)n1Cc1ccc(-c2ccccc2S(=O)(=O)NC(=O)NCc2ccccc2)cc1	0.09
CCCc1nc(SC)c(C(=O)CS(=O)(=O)c2ccc(OC)cc2)n1Cc1ccc(-c2ccccc2S(=O)(=O)NC(=O)NCc2ccccc2)cc1	0.1
CCCCc1nc(SC)c(C(=O)C(CCC)S(=O)(=O)c2ccccc2)n1Cc1ccc(-c2ccccc2S(=O)(=O)NC(=O)NCc2ccccc2)cc1 (configuration not stated)	1.8
CCCCc1nc(SC)c(C(=O)C[S+](C)[O-])n1Cc1ccc(-c2ccccc2S(=O)(=O)NC(=O)NCc2ccccc2)cc1 (configuration not stated)	0.3
CCCc1nc(SC)c(C(=O)C[S+]([O-])c2ccc(C)cc2)n1Cc1ccc(-c2ccccc2S(=O)(=O)NC(=O)NCc2ccccc2)cc1 (single isomer, unassigned; 7h)	0.03
CCCc1nc(SC)c(C(=O)CC#N)n1Cc1ccc(-c2ccccc2S(=O)(=O)NC(=O)NCc2ccccc2)cc1	0.3
CCCc1nc(SC)c(C(C)=O)n1Cc1ccc(-c2ccccc2S(=O)(=O)NC(=O)NCc2ccccc2)cc1	0.08

Continued, values first:

IC50 [nM]	SMILES
0.2	CCCCc1nc(SC)c(C(=O)CC(=O)c2ccccc2)n1Cc1ccc(-c2ccccc2S(=O)(=O)NC(=O)NCc2ccccc2)cc1
0.35	CCCc1nc(SC)c(C(=O)C[S+]([O-])c2ccccc2)n1Cc1ccc(-c2ccccc2S(=O)(=O)NC(=O)NCC2CCCC2)cc1 (configuration not stated)
0.3	CCCc1nc(SC)c(C(=O)C[S+]([O-])c2ccccc2)n1Cc1ccc(-c2ccccc2S(=O)(=O)NC(=O)NCC2CCCCC2)cc1 (configuration not stated)
0.02	CCCc1nc(SC)c(C(=O)C[S+]([O-])c2ccccc2)n1Cc1ccc(-c2ccccc2S(=O)(=O)NC(=O)NCc2cccs2)cc1 (configuration not stated)
0.04	CCCCc1nc(SC)c(C(=O)C[S+]([O-])c2ccccc2)n1Cc1ccc(-c2ccccc2S(=O)(=O)NC(=O)NCc2ccccc2)cc1 (configuration not stated)
0.07	CCc1nc(SC)c(C(=O)C[S+]([O-])c2ccccc2)n1Cc1ccc(-c2ccccc2S(=O)(=O)NC(=O)NCc2ccccc2)cc1 (configuration not stated)
0.07	CCCc1nc(SC)c(C(=O)C[S+]([O-])c2ccc(C)cc2)n1Cc1ccc(-c2ccccc2S(=O)(=O)NC(=O)NCc2ccccc2)cc1 (single isomer, unassigned; 7g)
0.06	CCCCc1nc(SC)c(C(=O)CS(=O)(=O)c2ccc(F)cc2)n1Cc1ccc(-c2ccccc2S(=O)(=O)NC(=O)NCc2ccccc2)cc1
